# Reference: patent publication US10670605B2, “Cysteine reactive probes and uses thereof” (The Scripps Research Institute, priority 2015, dated 2020)
# Several values for one entry are separate records, joined by “and”; a condition that tells them apart may be missing. Identical values can stand only once.
# Tests used:
# KDM4B C694 (O94953) = target: T1, KDM4B C694 (O94953) (Homo sapiens, UniProt O94953); test: Competitive isoTOP-ABPP, cell lysates; format: binding; conditions: for isoTOP-ABPP reactivity profile ratio, O94953_C694 / isoTOP-ABPP reactivity ratio, O94953_C694: 500 μm
# T1 sequence (O94953 1-1096): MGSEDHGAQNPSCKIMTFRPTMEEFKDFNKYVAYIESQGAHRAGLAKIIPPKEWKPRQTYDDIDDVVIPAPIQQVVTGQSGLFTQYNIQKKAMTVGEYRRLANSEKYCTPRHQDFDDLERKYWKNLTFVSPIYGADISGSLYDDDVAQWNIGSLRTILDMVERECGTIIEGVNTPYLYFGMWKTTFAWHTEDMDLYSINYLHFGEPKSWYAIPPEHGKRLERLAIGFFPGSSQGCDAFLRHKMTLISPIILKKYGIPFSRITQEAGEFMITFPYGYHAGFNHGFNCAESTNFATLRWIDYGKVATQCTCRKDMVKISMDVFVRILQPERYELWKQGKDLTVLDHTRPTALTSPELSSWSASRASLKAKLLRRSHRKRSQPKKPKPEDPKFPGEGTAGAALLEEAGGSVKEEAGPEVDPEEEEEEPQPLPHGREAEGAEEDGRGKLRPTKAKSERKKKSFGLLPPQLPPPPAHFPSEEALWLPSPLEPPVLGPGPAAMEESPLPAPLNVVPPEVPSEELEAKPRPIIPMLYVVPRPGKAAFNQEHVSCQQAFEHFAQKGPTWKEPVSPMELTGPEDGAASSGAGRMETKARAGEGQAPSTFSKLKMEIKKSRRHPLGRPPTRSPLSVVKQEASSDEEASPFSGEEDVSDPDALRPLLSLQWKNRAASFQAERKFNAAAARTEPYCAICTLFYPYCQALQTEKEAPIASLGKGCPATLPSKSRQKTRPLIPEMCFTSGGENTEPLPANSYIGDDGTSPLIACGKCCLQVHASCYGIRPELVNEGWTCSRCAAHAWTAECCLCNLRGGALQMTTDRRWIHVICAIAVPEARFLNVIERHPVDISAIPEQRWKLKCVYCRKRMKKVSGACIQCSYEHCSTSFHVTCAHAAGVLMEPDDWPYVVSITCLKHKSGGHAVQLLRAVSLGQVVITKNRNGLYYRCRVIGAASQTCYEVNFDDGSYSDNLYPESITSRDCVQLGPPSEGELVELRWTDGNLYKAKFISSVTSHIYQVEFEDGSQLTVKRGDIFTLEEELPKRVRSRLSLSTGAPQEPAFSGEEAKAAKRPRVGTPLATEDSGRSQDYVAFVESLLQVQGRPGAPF
# USP16 C205 (Q9Y5T5) = USP16 C205 (Q9Y5T5) (Homo sapiens, UniProt Q9Y5T5); test: Competitive isoTOP-ABPP, cell lysates; format: binding; conditions: for isoTOP-ABPP reactivity profile ratio, Q9Y5T5_C205 / isoTOP-ABPP reactivity ratio, Q9Y5T5_C205: 500 μm
# USP16 C205 (Q9Y5T5), sequence (Q9Y5T5 whole entry): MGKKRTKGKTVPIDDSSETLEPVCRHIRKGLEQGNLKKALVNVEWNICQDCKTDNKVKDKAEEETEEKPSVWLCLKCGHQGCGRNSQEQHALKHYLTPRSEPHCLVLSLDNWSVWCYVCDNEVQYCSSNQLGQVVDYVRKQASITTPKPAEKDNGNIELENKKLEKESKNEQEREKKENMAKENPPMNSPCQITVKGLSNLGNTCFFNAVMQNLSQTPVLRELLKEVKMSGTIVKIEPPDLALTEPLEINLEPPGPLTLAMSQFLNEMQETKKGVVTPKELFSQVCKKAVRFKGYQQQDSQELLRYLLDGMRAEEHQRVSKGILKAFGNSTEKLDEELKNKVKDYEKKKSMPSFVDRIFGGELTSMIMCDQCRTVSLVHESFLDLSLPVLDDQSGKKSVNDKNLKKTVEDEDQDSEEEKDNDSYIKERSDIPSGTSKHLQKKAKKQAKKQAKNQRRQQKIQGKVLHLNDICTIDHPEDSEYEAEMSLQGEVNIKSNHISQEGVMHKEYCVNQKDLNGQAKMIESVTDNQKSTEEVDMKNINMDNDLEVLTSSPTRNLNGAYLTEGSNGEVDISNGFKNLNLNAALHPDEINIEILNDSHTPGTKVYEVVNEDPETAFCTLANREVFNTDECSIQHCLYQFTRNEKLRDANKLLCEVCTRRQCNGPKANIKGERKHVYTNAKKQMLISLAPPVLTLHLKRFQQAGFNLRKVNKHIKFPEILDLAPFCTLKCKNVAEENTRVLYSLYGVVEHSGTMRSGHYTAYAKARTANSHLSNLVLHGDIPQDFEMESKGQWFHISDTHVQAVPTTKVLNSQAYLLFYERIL
structure (smiles),measurement,setting,value
C=CC(=O)N(Cc1cccnc1)c1ccc(Oc2ccccc2)c(C(F)(F)F)c1 [compound 15],"isoTOP-ABPP ratio (reactivity profile), O94953_C694",KDM4B C694 (O94953); 500 μm in-vitro ramos,1.1
COc1cc(NC(=O)CCl)cc(OC)c1 [compound 43],"isoTOP-ABPP reactivity profile ratio, O94953_C694",KDM4B C694 (O94953); in-vitro_ramos_231,20.0
CC(C)CCOCCNC(=O)CCl [compound 27],"isoTOP-ABPP ratio (reactivity profile), O94953_C694",KDM4B C694 (O94953); 500 μm in-vitro ramos_231,1.4 and 1.0
same,"isoTOP-ABPP ratio (reactivity profile), Q9Y5T5_C205",USP16 C205 (Q9Y5T5); 500 μm in-vitro ramos,0.9
same,"isoTOP-ABPP ratio (reactivity profile), Q9Y5T5_C205",USP16 C205 (Q9Y5T5); 500 μm in-vitro ramos_231,1.6
C=CC(=O)N1CCC(c2noc3ccc(F)cc23)CC1 [compound 37],"isoTOP-ABPP reactivity ratio, O94953_C694",KDM4B C694 (O94953); in-vitro_ramos,1.1
COc1ccc(C2CC(c3cccs3)=NN2C(=O)CCl)cc1 (stereo not drawn) [compound 4],R value (DMSO/fragment),"KDM4B C694 (O94953); 250 μM, in vitro, MDA-MB-231",20.0
same,R value (DMSO/fragment),"USP16 C205 (Q9Y5T5); 250 μM, in vitro, Ramos",20.0
O=C(CCl)Nc1cccc2ncccc12 [compound 51],"isoTOP-ABPP reactivity profile ratio, O94953_C694",KDM4B C694 (O94953); in-vitro_ramos,1.4
same,"isoTOP-ABPP reactivity profile ratio, Q9Y5T5_C205",USP16 C205 (Q9Y5T5); in-vitro_ramos,3.2
same,"isoTOP-ABPP reactivity profile ratio, Q9Y5T5_C205",USP16 C205 (Q9Y5T5); in-vitro_ramos_231,1.7
COc1ccccc1OCCNC(=O)CCl [compound 28],"isoTOP-ABPP ratio (reactivity profile), Q9Y5T5_C205",USP16 C205 (Q9Y5T5); 500 μm in-vitro ramos,1.6
O=C(CCl)N1CCN(S(=O)(=O)c2ccccc2F)CC1 [compound 10],"isoTOP-ABPP ratio, O94953_C694","KDM4B C694 (O94953); 500 μM, invitro, ramos",1.4
O=C(CCl)Nc1ccccc1C1CCCCCC1 [compound 35],"isoTOP-ABPP reactivity ratio, O94953_C694",KDM4B C694 (O94953); in-vitro_ramos,1.1
C=CC(=O)N(c1ccccc1)C1CCCCC1 [compound 46],"isoTOP-ABPP reactivity profile ratio, Q9Y5T5_C205",USP16 C205 (Q9Y5T5); in-vitro_ramos_231,1.0
Cc1ccc(C=C(C#N)C(=O)NCCN2CCOCC2)cc1 [compound 41],"isoTOP-ABPP reactivity ratio, Q9Y5T5_C205",USP16 C205 (Q9Y5T5); in-vitro_ramos_231,0.8
C=CC(=O)N(c1ccccc1)c1ccc(Br)cc1 [compound 5],"isoTOP-ABPP ratio, Q9Y5T5_C205","USP16 C205 (Q9Y5T5); 500 μM, invitro, ramos",1.1
O=C(CCl)Nc1cc(C(F)(F)F)cc(C(F)(F)F)c1 [compound 3],R value (DMSO/fragment),"KDM4B C694 (O94953); 500 μM, in vitro, MDA-MB-231",20.0
same,R value (DMSO/fragment),"KDM4B C694 (O94953); 500 μM, invitro, ramos",7.4
same,R value (DMSO/fragment),"USP16 C205 (Q9Y5T5); 500 μM, invitro, ramos",8.8
COc1ccc2c(c1)CCCN2C(=O)CCl [compound 2],R value (DMSO/fragment),"KDM4B C694 (O94953); 500 μM, in vitro, MDA-MB-231",20.0
same,R value (DMSO/fragment),"KDM4B C694 (O94953); 500 μM, invitro, ramos",5.1
same,R value (DMSO/fragment),"USP16 C205 (Q9Y5T5); 500 μM, in vitro, MDA-MB-231",20.0
N#C/C(=C\c1cc(C(F)(F)F)cc(C(F)(F)F)c1)C(N)=O [compound 23],"isoTOP-ABPP ratio (reactivity profile), O94953_C694",KDM4B C694 (O94953); 500 μm in-vitro ramos,3.2
same,"isoTOP-ABPP ratio (reactivity profile), Q9Y5T5_C205",USP16 C205 (Q9Y5T5); 500 μm in-vitro ramos,1.2
C=CC(=O)N1CCC(Cc2ccccc2)CC1 [compound 53],"isoTOP-ABPP reactivity profile ratio, Q9Y5T5_C205",USP16 C205 (Q9Y5T5); in-vitro_ramos_231,1.1
C=CC(=O)Nc1cc(F)c(N2CCN(C(=O)OC(C)(C)C)CC2)c(F)c1 [compound 38],"isoTOP-ABPP reactivity ratio, O94953_C694",KDM4B C694 (O94953); in-vitro_ramos,2.4
same,"isoTOP-ABPP reactivity ratio, Q9Y5T5_C205",USP16 C205 (Q9Y5T5); in-vitro_ramos,1.9
C=CC(=O)Nc1cc(C)c(Br)cc1C [compound 40],"isoTOP-ABPP reactivity ratio, Q9Y5T5_C205",USP16 C205 (Q9Y5T5); in-vitro_ramos,0.9
O=C(CCl)NC(=O)NC12CC3CC(CC(C3)C1)C2 [compound 12],"isoTOP-ABPP ratio, Q9Y5T5_C205","USP16 C205 (Q9Y5T5); 500 μM, invitro, 231",2.2
Cn1cc(S(=O)(=O)N2CCOCC2)cc1C(=O)NC(=O)CCl [compound 11],"isoTOP-ABPP ratio, O94953_C694","KDM4B C694 (O94953); 500 μM, invitro, ramos",1.9
same,"isoTOP-ABPP ratio, Q9Y5T5_C205","USP16 C205 (Q9Y5T5); 500 μM, invitro, 231",20.0
O=C(CCl)NCCc1c[nH]c2ccccc12 [compound 13],"isoTOP-ABPP ratio, O94953_C694","KDM4B C694 (O94953); 500 μM, invitro, 231",1.4
same,"isoTOP-ABPP ratio, O94953_C694","KDM4B C694 (O94953); 500 μM, invitro, ramos",1.1
same,"isoTOP-ABPP ratio, Q9Y5T5_C205","USP16 C205 (Q9Y5T5); 500 μM, invitro, ramos",3.3
O=C(CCl)N1CCN(CC(=O)N2CCOCC2)CC1 [compound 29],"isoTOP-ABPP ratio (reactivity profile), O94953_C694",KDM4B C694 (O94953); 500 μm in-vitro ramos_231,1.2
O=C(CCl)N1CCOCC1 [compound 22],"isoTOP-ABPP ratio (reactivity profile), Q9Y5T5_C205",USP16 C205 (Q9Y5T5); 500 μm in-vitro ramos,1.6
CNS(=O)(=O)C=Cc1ccc2c(ccn2Cc2ccccc2)c1 [compound 6],"isoTOP-ABPP ratio, O94953_C694","KDM4B C694 (O94953); 500 μM, invitro, 231",1.1
O=C(CCl)NC12CC3CC(CC(C3)C1)C2 [compound 21],"isoTOP-ABPP ratio (reactivity profile), O94953_C694",KDM4B C694 (O94953); 500 μm in-vitro ramos,1.8
same,"isoTOP-ABPP ratio (reactivity profile), Q9Y5T5_C205",USP16 C205 (Q9Y5T5); 500 μm in-vitro ramos_231,1.6
N#CC(=Cc1ccc(-c2ccccc2Cl)o1)C(N)=O [compound 42],"isoTOP-ABPP reactivity profile ratio, O94953_C694",KDM4B C694 (O94953); in-vitro_ramos,0.9
same,"isoTOP-ABPP reactivity profile ratio, Q9Y5T5_C205",USP16 C205 (Q9Y5T5); in-vitro_ramos,1.5
O=C(CCl)Nc1ccc(-c2ccccc2)cc1 [compound 52],"isoTOP-ABPP reactivity profile ratio, O94953_C694",KDM4B C694 (O94953); in-vitro_ramos,1.4
O=C(CCl)N1CCC(C(O)(c2ccccc2)c2ccccc2)CC1 [compound 20],"isoTOP-ABPP ratio (reactivity profile), O94953_C694",KDM4B C694 (O94953); 500 μm in-vitro ramos,2.0
same,"isoTOP-ABPP ratio (reactivity profile), O94953_C694",KDM4B C694 (O94953); 500 μm in-vitro ramos_231,2.8
